This is an account of results in PubChem BioAssay (NCI).

Some test systems named below: SR leukemia; OVCAR-4 ovarian; HOP-62 NSCLC; U251 CNS; RPMI-8226 leukemia; EKVX NSCLC; M14 melanoma; OVCAR-3 ovarian; SK-OV-3 ovarian; RXF 393 renal; NCI-H522 lung; LOX IMVI melanoma; HOP-92 NSCLC; PC-3 prostate; NCI/ADR-RES ovarian; SNB-75 CNS; HCT-116 colon; HCC-2998 colon; NCI-H23 lung; TK-10 renal.
Common to all, as to experiment: NCI-60 cell line screen, 48 h

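Cells were grown in 96-well plates and exposed to each compound for 48 hours at five concentrations; endpoints were interpolated linearly between bracketing concentrations, or set to the highest concentration if not reached. At the TGI there is no net growth.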

As to `CN(NC(=O)c1cccs1)C1=NCCN1`, the TGI in the test on SR leukemia, in the test with OVCAR-4 ovarian, in the test on HOP-62 NSCLC, with U251 CNS, in the test on RPMI-8226 leukemia and in the test with EKVX NSCLC was above 100 µM each time. For the same compound, the TGI in the test with M14 melanoma, in the test on OVCAR-3 ovarian, with SK-OV-3 ovarian, in the test with RXF 393 renal, with NCI-H522 lung and in the test on LOX IMVI melanoma was above 100 µM in each case. The TGI with HOP-92 NSCLC, in the test on PC-3 prostate, in the test with NCI/ADR-RES ovarian, with SNB-75 CNS, with HCT-116 colon and with HCC-2998 colon was above 100 µM each time. The TGI in the test on NCI-H23 lung and with TK-10 renal was above 100 µM each time.

`CCOC(=O)[C@H]1C[C@]23CN(C(=O)OC(C)(C)C)CC[C@H]2CCC2(SCCCS2)[C@@H]3N1C`: the TGI with SR leukemia is 76.5 µM; with OVCAR-4 ovarian it was 74.2 µM; in the test with HOP-62 NSCLC, above 100 µM; in the test with U251 CNS, above 100 µM; with RPMI-8226 leukemia it was 54.4 µM; with EKVX NSCLC, 90.4 µM. Also, the TGI with M14 melanoma is above 100 µM; in the test with OVCAR-3 ovarian, above 100 µM; in the test on SK-OV-3 ovarian, above 100 µM; in the test with RXF 393 renal it was 99.7 µM; with NCI-H522 lung, above 100 µM; in the test with LOX IMVI melanoma, above 100 µM. The TGI was 51 µM in the test with HOP-92 NSCLC; 89.9 µM with PC-3 prostate; above 100 µM in the test with NCI/ADR-RES ovarian; above 100 µM in the test on SNB-75 CNS; above 100 µM in the test with HCT-116 colon; 65.4 µM in the test with HCC-2998 colon. Besides, the TGI in the test on NCI-H23 lung was above 100 µM; in the test with TK-10 renal it was 81.2 µM.

On to `CC(=O)NNc1nc(C)c(C(/C=C/c2ccc(NC(C)=O)cc2)=N/NS(=O)(=O)c2ccc(C)cc2)s1`, for which the TGI with SR leukemia, in the test on OVCAR-4 ovarian, in the test on HOP-62 NSCLC, in the test with U251 CNS, in the test on RPMI-8226 leukemia and in the test with EKVX NSCLC was above 100 µM each time. Moreover, the TGI in the test on M14 melanoma, with OVCAR-3 ovarian, in the test on SK-OV-3 ovarian, in the test on RXF 393 renal, in the test with NCI-H522 lung and with LOX IMVI melanoma was above 100 µM each time. Also, the TGI in the test with HOP-92 NSCLC, in the test with PC-3 prostate, in the test on NCI/ADR-RES ovarian, in the test with SNB-75 CNS, in the test with HCT-116 colon and in the test on HCC-2998 colon was above 100 µM in each case. The TGI in the test on NCI-H23 lung and in the test on TK-10 renal was above 100 µM each time.

For the compound `COc1ccc(C(=O)c2ccc(-n3c4ccccc4c4ccc5c(c43)C(=O)C=CC5=O)cc2)cc1`, the TGI with SR leukemia is above 100 µM; in the test on OVCAR-4 ovarian, 6.37 µM; in the test with HOP-62 NSCLC, 28.7 µM; in the test with U251 CNS it was 3.54 µM; in the test on RPMI-8226 leukemia, above 100 µM; in the test on EKVX NSCLC, 4.32 µM. Also, the TGI with M14 melanoma amounted to 7.45 µM; with OVCAR-3 ovarian, 2.68 µM; with SK-OV-3 ovarian it was 27.5 µM; with RXF 393 renal, 16 µM; with NCI-H522 lung, 0.936 µM; in the test with LOX IMVI melanoma, 4.31 µM. For the same compound, the TGI in the test on HOP-92 NSCLC is 8.66 µM; in the test on PC-3 prostate, 3.3 µM; with NCI/ADR-RES ovarian, above 21.3 µM; with SNB-75 CNS, above 30.9 µM; in the test with HCT-116 colon, 2.77 µM; with HCC-2998 colon it was 11.5 µM. In addition, the TGI is 5.18 µM in the test on NCI-H23 lung and 3.76 µM in the test with TK-10 renal.

Take `CN(C)/C=N/S(=O)(=O)c1nn2c(C=O)c(-c3ccc([N+](=O)[O-])cc3)nc2s1`: the TGI was above 43.3 µM with SR leukemia; 39.7 µM with OVCAR-4 ovarian; above 81.9 µM in the test on HOP-62 NSCLC; 41.6 µM in the test on U251 CNS; above 60.9 µM in the test with RPMI-8226 leukemia; 58.7 µM with EKVX NSCLC. Also, the TGI in the test with M14 melanoma was above 32.4 µM; with OVCAR-3 ovarian it was 18 µM; in the test with SK-OV-3 ovarian, above 100 µM; in the test on RXF 393 renal, above 67 µM; with NCI-H522 lung, 3.86 µM; with LOX IMVI melanoma, 27 µM. For the same compound, the TGI with HOP-92 NSCLC is 53.5 µM; in the test on PC-3 prostate, above 51.9 µM; with NCI/ADR-RES ovarian it was above 100 µM; with SNB-75 CNS, above 86.9 µM; with HCT-116 colon, 6.51 µM; with HCC-2998 colon, above 43.4 µM. The results for the TGI in the test with NCI-H23 lung and in the test with TK-10 renal were 49.7 µM and 21.6 µM, respectively.

Consider `CC(OCc1ccccc1)C(NC(=O)C1CSSCC(NC(=O)C(Cc2ccccc2)NC(=O)OCc2ccccc2)C(=O)NC(Cc2ccccc2)C(=O)NC(Cc2cn(C=O)c3ccccc23)C(=O)NC(CCCCNC(=O)OCc2ccccc2)C(=O)NC(C(C)OCc2ccccc2)C(=O)N1)C(N)=O` (stereo not given), for which the TGI in the test with SR leukemia is above 93.4 µM; in the test with OVCAR-4 ovarian, above 79.3 µM; with HOP-62 NSCLC, above 100 µM; with U251 CNS, above 70.7 µM; in the test with RPMI-8226 leukemia, 53.3 µM; with EKVX NSCLC, above 100 µM. Besides, the TGI in the test with M14 melanoma was above 79.1 µM; in the test with OVCAR-3 ovarian it was 34 µM; with SK-OV-3 ovarian, above 100 µM; in the test with RXF 393 renal, above 100 µM; with NCI-H522 lung, 38.5 µM; in the test on LOX IMVI melanoma, 47 µM. The TGI with HOP-92 NSCLC is above 100 µM; with PC-3 prostate, above 52.4 µM; in the test on NCI/ADR-RES ovarian, above 100 µM; with SNB-75 CNS, above 71.3 µM; in the test on HCT-116 colon, 98.7 µM; in the test with HCC-2998 colon, above 32.5 µM. The TGI in the test on NCI-H23 lung was above 100 µM; with TK-10 renal, above 84.8 µM.
